Patent publication US20250197372A1 (priority 2020, published 2025)

How the values were obtained:
[1] = molecular target: recombinant human GAA (acid alpha-glucosidase) (Homo sapiens, UniProt P10253); assay: Acid alpha-glucosidase (GAA) assay (4-methylumbelliferyl-alpha-D-pyranoside substrate, fluorescence); type: biochemical
Procedure, shortened: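 IC50 from 4-PL curve fit of percent inhibition, based on fluorescence (365/440 nm) of released methylumbelliferone relative to uninhibited enzyme. Compound dilutions and human GAA incubated 60 min, 37 °C, before 20 min substrate reaction at 37 °C, quenched at pH 10.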

[2] = molecular target: T1, recombinant human GBA (beta-glucocerebrosidase) (Homo sapiens, UniProt P04062); assay: Beta-glucocerebrosidase (GBA, glucosylceramidase) assay (4-methylumbelliferyl-beta-D-pyranoside substrate, fluorescence); type: biochemical
T1 sequence (P04062 40-536): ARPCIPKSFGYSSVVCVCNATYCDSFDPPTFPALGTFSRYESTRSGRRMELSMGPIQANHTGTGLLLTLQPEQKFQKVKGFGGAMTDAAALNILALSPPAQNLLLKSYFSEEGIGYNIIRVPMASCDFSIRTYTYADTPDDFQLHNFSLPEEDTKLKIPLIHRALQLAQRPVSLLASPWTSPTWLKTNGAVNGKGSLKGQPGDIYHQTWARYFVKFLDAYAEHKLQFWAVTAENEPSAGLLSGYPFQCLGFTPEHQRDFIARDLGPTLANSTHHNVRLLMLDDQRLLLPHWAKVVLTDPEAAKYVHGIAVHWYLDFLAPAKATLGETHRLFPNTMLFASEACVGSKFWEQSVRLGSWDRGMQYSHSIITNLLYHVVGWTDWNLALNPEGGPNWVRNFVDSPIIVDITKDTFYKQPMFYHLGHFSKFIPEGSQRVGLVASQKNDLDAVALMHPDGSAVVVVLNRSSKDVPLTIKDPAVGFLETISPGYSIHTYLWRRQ
Procedure, shortened: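 IC50 by four-parameter fit of percent inhibition, with product fluorescence (365/440 nm) read after a glycine/NaOH pH 10 stop. Compound and commercial recombinant human enzyme were incubated 60 min at 37 °C before a further 60 min at 37 °C with 4-methylumbelliferyl-beta-D-pyranoside substrate.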

SMILES	IC50 [1]	IC50 [2]
[N-]=[N+]=Nc1ccc(NCC[C@H]2CC[C@@H](CCN3C[C@H](O)[C@@H](O)[C@H](O)[C@H]3CO)CC2)c([N+](=O)[O-])c1 [Compound 1106, (2R,3R,4R,5S)-2-(hydroxymethyl)-1-{2-[(1s,4s)-4-{2-[(4-azido-2-nitrophenyl)amino]ethyl}cyclohexyl]ethyl}piperidine-3,4,5-triol]	36 nM	6970 nM
[N-]=[N+]=Nc1ccc(NCC[C@H]2CC[C@H](CCN3C[C@H](O)[C@@H](O)[C@H](O)[C@H]3CO)CC2)c([N+](=O)[O-])c1 [Compound 1107, (2R,3R,4R,5S)-2-(hydroxymethyl)-1-{2-[(1r,4r)-4-{2-[(4-azido-2-nitrophenyl)amino]ethyl}cyclohexyl]ethyl}piperidine-3,4,5-triol]	3190 nM	362 nM
O=[N+]([O-])c1cc(CN2CCCO2)ccc1NCCc1ccc(CCN2C[C@H](O)[C@@H](O)[C@H](O)[C@H]2CO)cc1 [Compound 1108, (2R,3R,4R,5S)-2-(hydroxymethyl)-1-(2-{4-[2-({2-nitro-4-[(1,2-oxazolidin-2-yl)methyl]phenyl}amino)ethyl]phenyl}ethyl)piperidine-3,4,5-triol]	311 nM	6000 nM
O=[N+]([O-])c1cc(-c2cccnn2)ccc1NCCc1ccc(CCN2C[C@H](O)[C@@H](O)[C@H](O)[C@H]2CO)cc1 [Compound 1109, (2R,3R,4R,5S)-2-(hydroxymethyl)-1-{2-[4-(2-{[2-nitro-4-(pyridazin-3-yl)phenyl]amino}ethyl)phenyl]ethyl}piperidine-3,4,5-triol]	3 nM	6550 nM
O=[N+]([O-])c1cc(-c2ccncc2)ccc1NCCc1ccc(CCN2C[C@H](O)[C@@H](O)[C@H](O)[C@H]2CO)cc1 [Compound 1110, (2R,3R,4R,5S)-2-(hydroxymethyl)-1-{2-[4-(2-{[2-nitro-4-(pyridin-4-yl)phenyl]amino}ethyl)phenyl]ethyl}piperidine-3,4,5-triol]	7 nM	48 nM
O=[N+]([O-])c1cc(-c2ncccn2)ccc1NCCc1ccc(CCN2C[C@H](O)[C@@H](O)[C@H](O)[C@H]2CO)cc1 [Compound 1111, (2R,3R,4R,5S)-2-(hydroxymethyl)-1-{2-[4-(2-{[2-nitro-4-(pyrimidin-2-yl)phenyl]amino}ethyl)phenyl]ethyl}piperidine-3,4,5-triol]	20 nM	1790 nM
O=[N+]([O-])c1cc(-c2ncco2)ccc1NCCc1ccc(CCN2C[C@H](O)[C@@H](O)[C@H](O)[C@H]2CO)cc1 [Compound 1112, (2R,3R,4R,5S)-2-(hydroxymethyl)-1-{2-[4-(2-{[2-nitro-4-(1,3-oxazol-2-yl)phenyl]amino}ethyl)phenyl]ethyl}piperidine-3,4,5-triol]	105 nM	4990 nM
O=S(=O)(Nc1cc(NCCCCCCN2C[C@H](O)[C@@H](O)[C@H](O)[C@H]2CO)cc(-c2ncccn2)c1)C1CC1 [Compound 1114, N-[3-(pyrimidin-2-yl)-5-({6-[(2R,3R,4R,5S)-3,4,5-trihydroxy-2-(hydroxymethyl)piperidin-1-yl]hexyl}amino)phenyl]cyclopropanesulfonamide]	16 nM	5140 nM
[N-]=[N+]=Nc1ccc(NCCc2cc(CCN3C[C@H](O)[C@@H](O)[C@H](O)[C@H]3CO)cc(C3CCCCC3)c2)c([N+](=O)[O-])c1 [Compound 1115, (2R,3R,4R,5S)-1-[2-(3-{2-[(4-azido-2-nitrophenyl)amino]ethyl}-5-cyclohexylphenyl)ethyl]-2-(hydroxymethyl)piperidine-3,4,5-triol]	5490 nM	407 nM
COC(=O)c1cc(Cl)cc(NCCc2ccc(CCN3C[C@H](O)[C@@H](O)[C@H](O)[C@H]3CO)cc2)c1 [Compound 1116, methyl 3-chloro-5-{[2-(4-{2-[(2R,3R,4R,5S)-3,4,5-trihydroxy-2-(hydroxymethyl)piperidin-1-yl]ethyl}phenyl)ethyl]amino}benzoate]	428 nM	904 nM
O=C(O)c1cc(Cl)cc(NCCc2ccc(CCN3C[C@H](O)[C@@H](O)[C@H](O)[C@H]3CO)cc2)c1 [Compound 1117, 3-chloro-5-{[2-(4-{2-[(2R,3R,4R,5S)-3,4,5-trihydroxy-2-(hydroxymethyl)piperidin-1-yl]ethyl}phenyl)ethyl]amino}benzoic acid]	498 nM	18100 nM
O=C(O)c1cc(NCCCCCCN2C[C@H](O)[C@@H](O)[C@H](O)[C@H]2CO)cc(-c2ncccn2)c1 [Compound 1118, 3-(pyrimidin-2-yl)-5-({6-[(2R,3R,4R,5S)-3,4,5-trihydroxy-2-(hydroxymethyl)piperidin-1-yl]hexyl}amino) benzoic acid]	27 nM	2430 nM
COc1cc(NCCc2ccc(CCN3C[C@H](O)[C@@H](O)[C@H](O)[C@H]3CO)cc2)cc(-c2noc(C3CCC3)n2)c1 [Compound 1120, (2R,3R,4R,5S)-1-{2-[4-(2-{[3-(5-cyclobutyl-1,2,4-oxadiazol-3-yl)-5-methoxyphenyl]amino}ethyl)phenyl]ethyl}-2-(hydroxymethyl)piperidine-3,4,5-triol]	581 nM	13 nM
OC[C@@H]1[C@@H](O)[C@H](O)[C@@H](O)CN1CCc1ccc(CCNc2cc(Cl)cc(-c3noc(C4CCC4)n3)c2)cc1 [Compound 1122, (2R,3R,4R,5S)-1-{2-[4-(2-{[3-chloro-5-(5-cyclobutyl-1,2,4-oxadiazol-3-yl)phenyl]amino}ethyl)phenyl]ethyl}-2-(hydroxymethyl)piperidine-3,4,5-triol]	558 nM	6 nM
